Structures can show the parent of a compound that is named as a salt.
How the values were obtained:
hERG potassium channel = biological target: T1, hERG potassium channel (Homo sapiens, UniProt Q12809); experiment: hERG automated patch clamp assay; format: cell-based; settings: inhibition of hERG tail current, 5 minutes at room temperature, CHO-K1 cells stably expressing hERG
T1 construct: expressed in transfected cells; host or cells: CHO-K1
Description: One major type of cardiovascular toxicity associated with pharmaceutical drugs is caused by drug effects on cardiac ion channels like hERG. Drug-induced inhibition of hERG results in a prolonged QT interval, which can lead to a life-threatening ventricular arrhythmia. Therefore, the inhibitory effect of compounds described in Examples 1-46 on the hERG potassium channel was evaluated using an automated patch clamp assay as described in Mathes, C. (2006) Expert Opin. Ther. Targets, 10 (2): 319-327. CHO-K1 cells stably expressing hERG channels were used.

[1] = test system: MC3T3-E1 (mouse calvarial) osteoblast cells; experiment: Rescue of sclerostin inhibition of mineralization (total calcium); format: cell-based; settings: Mus musculus, MC3T3-E1; IC100 class; calcium concentration, MC3T3 osteoblast cells treated with sclerostin; read-out: Sclerostin Inhibition of Mineralization; improvement over sclerostin alone.
Description: Mineralization (crystalline calcium phosphate formation) represents an in vitro model of bone formation. […] Following the protocol described in Li et al., Compounds were assayed for their ability to rescue the inhibition of mineralization by sclerostin in MC3T3 osteoblast cells.

sclerostin = biological target: T2, sclerostin (Homo sapiens, UniProt Q9BQB4); experiment: Modulation of sclerostin/Wnt activity (sclerostin inhibition assay): restoring Wnt3a signaling in the presence of sclerostin; format: cell-based; settings: IC100 class; Wnt3a signaling in human embryonic cells in presence of sclerostin
T2 construct: host or cells: human embryonic cells (reporter cells)
T2 sequence (Q9BQB4 24-213): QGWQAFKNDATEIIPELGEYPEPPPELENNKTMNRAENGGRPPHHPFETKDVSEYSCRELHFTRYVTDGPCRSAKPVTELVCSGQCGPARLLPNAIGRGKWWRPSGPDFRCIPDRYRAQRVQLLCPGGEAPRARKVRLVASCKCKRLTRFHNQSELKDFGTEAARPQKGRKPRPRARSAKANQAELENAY

MC3T3 osteoblast cells = experiment: Osteocalcin (OCN) secretion, bone formation marker, ELISA; format: cell-based, mouse; settings: Mus musculus; IC100 class; OCN secreted from MC3T3 osteoblast cells treated with sclerostin
Description: Bone formation can also be assayed in vitro or in vivo using a serum marker for bone formation, osteocalcin (OCN), available from Biomedical Tecnhnologies, Inc. (Stoughton, Mass.). Following the manufacturer's protocol for the mouse osteocalcin EIA kit (described at the website www.btiinc.com/page/cata2.html#mouse_osteocalcin), bone formation in MC3T3 osteoblast cells was assayed by measuring the concentration of OCN.

T1 sequence (Q12809 whole entry): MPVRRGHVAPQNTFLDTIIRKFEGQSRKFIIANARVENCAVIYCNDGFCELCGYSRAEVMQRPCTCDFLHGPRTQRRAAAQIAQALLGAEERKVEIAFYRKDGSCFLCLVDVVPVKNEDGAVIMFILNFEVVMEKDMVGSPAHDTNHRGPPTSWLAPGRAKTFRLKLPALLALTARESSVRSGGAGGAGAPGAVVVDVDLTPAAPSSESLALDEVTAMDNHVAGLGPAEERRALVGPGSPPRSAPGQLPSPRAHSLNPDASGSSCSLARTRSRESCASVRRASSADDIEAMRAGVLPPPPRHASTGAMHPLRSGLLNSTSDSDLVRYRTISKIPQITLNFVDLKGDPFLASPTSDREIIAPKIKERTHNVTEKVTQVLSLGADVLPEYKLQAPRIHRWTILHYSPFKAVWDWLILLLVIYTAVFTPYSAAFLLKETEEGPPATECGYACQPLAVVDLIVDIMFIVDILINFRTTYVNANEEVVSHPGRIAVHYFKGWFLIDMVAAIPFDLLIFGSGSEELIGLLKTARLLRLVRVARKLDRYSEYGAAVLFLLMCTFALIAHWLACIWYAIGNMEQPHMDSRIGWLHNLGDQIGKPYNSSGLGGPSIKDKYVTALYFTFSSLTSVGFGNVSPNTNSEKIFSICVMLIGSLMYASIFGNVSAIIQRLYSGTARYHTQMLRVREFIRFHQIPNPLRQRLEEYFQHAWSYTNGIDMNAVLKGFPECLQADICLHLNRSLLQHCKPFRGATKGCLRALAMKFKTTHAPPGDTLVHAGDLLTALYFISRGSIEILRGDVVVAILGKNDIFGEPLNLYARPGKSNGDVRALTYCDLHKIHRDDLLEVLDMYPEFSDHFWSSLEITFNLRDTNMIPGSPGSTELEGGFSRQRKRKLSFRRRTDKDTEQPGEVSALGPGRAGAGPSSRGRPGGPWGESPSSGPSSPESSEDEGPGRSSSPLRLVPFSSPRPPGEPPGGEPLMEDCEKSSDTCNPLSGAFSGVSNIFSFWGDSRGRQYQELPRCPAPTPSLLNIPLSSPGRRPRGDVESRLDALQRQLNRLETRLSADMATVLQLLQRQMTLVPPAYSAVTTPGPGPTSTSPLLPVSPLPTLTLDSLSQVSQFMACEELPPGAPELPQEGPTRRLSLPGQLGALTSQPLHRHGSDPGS

| Sclerostin Inhibition Assay; improvement over sclerostin alone. (sclerostin) | SMILES | hERG (1uM) (hERG potassium channel) | IC100 [1] [µM] | IC100 (MC3T3 osteoblast cells) [µM] |
| --- | --- | --- | --- | --- |
| ++ (++ indicates an IC100 < 10 μM) | COc1ccc2c3ccnc(C)c3n(CCCN3CCNCC3)c2c1 [Example 17, 7-methoxy-1-methyl-9-(3-(piperazin-1-yl)propyl)-9H-pyrido[3,4-b]indole trifluoroacetate] | + (+ indicates less than 50% inhibition of hERG tail current) | < 10 | < 10 |
| ++ (++ indicates an IC100 < 10 μM) | COc1ccc2c3ccnc(C)c3n(CCN(C)CCO)c2c1 [Example 18, 2-((2-(7-methoxy-1-methyl-9H-pyrido[3,4-b]indol-9-yl)ethyl)(methyl)amino)ethanol] | + (+ indicates less than 50% inhibition of hERG tail current) | < 10 | < 10 |
| + (+ indicates an IC100 > 10 μM) | COc1ccc2c(c1)[nH]c1c(C)[n+]([O-])ccc12 [Example 21, 7-methoxy-1-methyl-9H-pyrido[3,4-b]indole pyridine N-oxide] | + (+ indicates less than 50% inhibition of hERG tail current) | > 10 | > 10 |
| ++ (++ indicates an IC100 < 10 μM) | COc1ccc2c3ccnc(C(F)(F)F)c3n(CCN3CCOCC3)c2c1 [Example 25, 4-(2-(7-methoxy-1-(trifluoromethyl)-9H-pyrido[3,4-b]indol-9-yl)ethyl) morpholine] | + (+ indicates less than 50% inhibition of hERG tail current) | < 10 | < 10 |
| ++ (++ indicates an IC100 < 10 μM) | COc1ccc2c3ccnc(C(F)(F)F)c3n(CC(C)N(C)C)c2c1 (stereo not shown) [Example 27, 1-(7-methoxy-1-(trifluoromethyl)-9H-pyrido[3,4-b]indol-9-yl)-N,N-dimethylpropan-2-amine] | + (+ indicates less than 50% inhibition of hERG tail current) | < 10 | < 10 |
| ++ (++ indicates an IC100 < 10 μM) | CC1(C)COCCN1CCn1c2cc(O)ccc2c2ccnc(C(F)(F)F)c21 [Example 32, 9-(2-(3,3-dimethylmorpholino)ethyl)-1-(trifluoromethyl)-9H-pyrido[3,4-b]indol-7-ol] | + (+ indicates less than 50% inhibition of hERG tail current) | < 10 | < 10 |
| ++ (++ indicates an IC100 < 10 μM) | COc1ccc2c3ccnc(C(F)(F)F)c3n(CCN(CCO)CCO)c2c1 [Example 35, 2,2′-((2-(7-methoxy-1-(trifluoromethyl)-9H-pyrido[3,4-b]indol-9-yl)ethyl)azanediyl)diethanol] | + (+ indicates less than 50% inhibition of hERG tail current) | < 10 | < 10 |
| ++ (++ indicates an IC100 < 10 μM) | COc1ccc2c(c1)[nH]c1c(C)ccnc12 [Example 37, 7-methoxy-4-methyl-5H-pyrido[3,2-b]indole] | + (+ indicates less than 50% inhibition of hERG tail current) | < 10 | < 10 |
| ++ (++ indicates an IC100 < 10 μM) | COc1ccc2c(c1)[nH]c1c(C)nc(OC)cc12 [Example 40, 3,7-dimethoxy-1-methyl-9H-pyrido[3,4-b]indole] | + (+ indicates less than 50% inhibition of hERG tail current) | < 10 | < 10 |

| SMILES | Sclerostin Inhibition Assay; improvement over sclerostin alone. (sclerostin) | hERG (1uM) (hERG potassium channel) | IC100 [1] [µM] | IC100 (MC3T3 osteoblast cells) [µM] |
| --- | --- | --- | --- | --- |
| COc1ccc2c(c1)[nH]c1c(C(F)(F)F)nccc12 [Example 22, 7-methoxy-1-(trifluoromethyl)-9H-pyrido[3,4-b]indole] | ++ (++ indicates an IC100 < 10 μM) | + (+ indicates less than 50% inhibition of hERG tail current) | < 10 | < 10 |
